Experimental data: US10473647B1, “Peptides for use in treatment and diagnosis of type 1 diabetes” (ImmusanT, Inc., priority 2014, dated 2019)
Non-standard residues stand in square brackets, D forms with d. pGlu = O=C1CC[C@@H](C(=O)O)N1

Assays:
Type in all cases: cell-based, human
[1] = tested on: whole blood from subjects with T1D and Celiac disease; experiment: Whole blood cytokine release assay, IFN-γ (MAGPIX), Example 1; settings: for Whole blood IFNg release / Whole blood IFNg release, fold-change over medium only: 10 uM; for IFN-g fold-change / IFN-g fold-change (preproinsulin peptides) / IFN-g fold-change (GAD65 peptides): individual 17mer 20 μg/mL, blood 6 days after commencing oral gluten challenge
[2] = tested on: whole blood from subjects with T1D and Celiac disease; experiment: Whole blood cytokine release assay, IP-10 (MAGPIX), Example 1; settings: for Whole blood IP-10 release / Whole blood IP-10 release, fold-change over medium only: 10 uM; for IP-10 fold-change / IP-10 fold-change (preproinsulin peptides) / IP-10 fold-change (GAD65 peptides): individual 17mer 20 μg/mL, blood 6 days after commencing oral gluten challenge
[3] = tested on: whole blood from subjects with T1D and Celiac disease; experiment: Whole blood cytokine release assay, IL-2 (MAGPIX), Example 1; settings: for Whole blood IL-2 release / Whole blood IL-2 release, fold-change over medium only: 10 uM; for IL-2 fold-change / IL-2 fold-change (preproinsulin peptides) / IL-2 fold-change (GAD65 peptides): individual 17mer 20 μg/mL, blood 6 days after commencing oral gluten challenge
[4] = subject 1, day 0 since oral challenge
[5] = subject 1, day 6 since oral challenge
[6] = subject 2, day 0 since oral challenge
[7] = subject 2, day 6 since oral challenge
[8] = subject 6, day 0 since oral challenge
[9] = subject 6, day 6 since oral challenge
[10] = subject 7, day 0 since oral challenge
[11] = subject 7, day 6 since oral challenge

(pE)PEQPIPEQPQPYPQQ-NH2 ([pGlu]PEQPIPEQPQPYPQQ-NH2; SMILES CC[C@H](C)[C@H](NC(=O)[C@@H]1CCCN1C(=O)[C@H](CCC(N)=O)NC(=O)[C@H](CCC(=O)O)NC(=O)[C@@H]1CCCN1C(=O)[C@@H]1CCC(=O)N1)C(=O)N1CCC[C@H]1C(=O)N[C@@H](CCC(=O)O)C(=O)N[C@@H](CCC(N)=O)C(=O)N1CCC[C@H]1C(=O)N[C@@H](CCC(N)=O)C(=O)N1CCC[C@H]1C(=O)N[C@@H](Cc1ccc(O)cc1)C(=O)N1CCC[C@H]1C(=O)N[C@@H](CCC(N)=O)C(=O)N[C@@H](CCC(N)=O)C(N)=O) [SEQ ID NO: 42, gluten peptide, reference compound]
Whole blood IFNg release [1, 4]: 42 pg/mL | Whole blood IFNg release, fold-change over medium only [1, 4]: 0.76 | Whole blood IFNg release [1, 5]: 72 pg/mL | Whole blood IFNg release, fold-change over medium only [1, 5]: 1.09 | Whole blood IFNg release [1, 6]: 3.3 pg/mL | Whole blood IFNg release, fold-change over medium only [1, 6]: 0.85 | Whole blood IFNg release [1, 7]: 8.6 pg/mL | Whole blood IFNg release, fold-change over medium only [1, 7]: 1.77 | Whole blood IFNg release [1, 8]: 96 pg/mL | Whole blood IFNg release, fold-change over medium only [1, 8]: 0.99 | Whole blood IFNg release [1, 9]: 278 pg/mL | Whole blood IFNg release, fold-change over medium only [1, 9]: 2.84 | Whole blood IFNg release [1, 10]: 170 pg/mL | Whole blood IFNg release, fold-change over medium only [1, 10]: 0.71 | Whole blood IFNg release [1, 11]: 102 pg/mL | Whole blood IFNg release, fold-change over medium only [1, 11]: 0.68 | Whole blood IP-10 release [2, 4]: 235 pg/mL | Whole blood IP-10 release, fold-change over medium only [2, 4]: 0.89 | Whole blood IP-10 release [2, 5]: 325 pg/mL | Whole blood IP-10 release, fold-change over medium only [2, 5]: 0.97 | Whole blood IP-10 release [2, 6]: 336 pg/mL | Whole blood IP-10 release, fold-change over medium only [2, 6]: 1.26 | Whole blood IP-10 release [2, 7]: 1269 pg/mL | Whole blood IP-10 release, fold-change over medium only [2, 7]: 4.06 | Whole blood IP-10 release [2, 8]: 3409 pg/mL | Whole blood IP-10 release, fold-change over medium only [2, 8]: 12.30 | Whole blood IP-10 release [2, 9]: 10000 pg/mL | Whole blood IP-10 release, fold-change over medium only [2, 9]: 49.76 | Whole blood IP-10 release [2, 10]: 713 pg/mL | Whole blood IP-10 release, fold-change over medium only [2, 10]: 0.96 | Whole blood IP-10 release [2, 11]: 2549 pg/mL | Whole blood IP-10 release, fold-change over medium only [2, 11]: 2.86 | Whole blood IL-2 release [3, 4]: 3.2 pg/mL | Whole blood IL-2 release, fold-change over medium only [3, 4]: 1.00 | Whole blood IL-2 release [3, 5]: 3.2 pg/mL | Whole blood IL-2 release, fold-change over medium only [3, 5]: 1.00 | Whole blood IL-2 release [3, 6]: 3.2 pg/mL | Whole blood IL-2 release, fold-change over medium only [3, 6]: 1.00 | Whole blood IL-2 release [3, 7]: 22.4 pg/mL | Whole blood IL-2 release, fold-change over medium only [3, 7]: 7.00 | Whole blood IL-2 release [3, 8]: 23.3 pg/mL | Whole blood IL-2 release, fold-change over medium only [3, 8]: 4.71 | Whole blood IL-2 release [3, 9]: 134.3 pg/mL | Whole blood IL-2 release, fold-change over medium only [3, 9]: 31.67 | Whole blood IL-2 release [3, 10]: 106.1 pg/mL | Whole blood IL-2 release, fold-change over medium only [3, 10]: 1.69 | Whole blood IL-2 release [3, 11]: 27.8 pg/mL | Whole blood IL-2 release, fold-change over medium only [3, 11]: 0.66

EAEVGQVELGGGPGAGS [SEQ ID NO: 56]
IFN-g fold-change ([1]; Subject 1): 1.07 | IFN-g fold-change (preproinsulin peptides) ([1]; Subject 1): 1.07 fold | IFN-g fold-change ([1]; Subject 2): 0.82 | IFN-g fold-change (preproinsulin peptides) ([1]; Subject 2): 0.82 fold | IFN-g fold-change ([1]; Subject 6): 0.97 | IFN-g fold-change (preproinsulin peptides) ([1]; Subject 6): 0.97 fold | IFN-g fold-change ([1]; Subject 7): 1.55 | IFN-g fold-change (preproinsulin peptides) ([1]; Subject 7): 1.55 fold | IP-10 fold-change ([2]; Subject 1): 0.96 | IP-10 fold-change (preproinsulin peptides) ([2]; Subject 1): 0.96 fold | IP-10 fold-change ([2]; Subject 2): 1.05 | IP-10 fold-change (preproinsulin peptides) ([2]; Subject 2): 1.05 fold | IP-10 fold-change ([2]; Subject 6): 0.91 | IP-10 fold-change (preproinsulin peptides) ([2]; Subject 6): 0.91 fold | IP-10 fold-change ([2]; Subject 7): 1.43 | IP-10 fold-change (preproinsulin peptides) ([2]; Subject 7): 1.43 fold | IL-2 fold-change ([3]; Subject 1): 1.00 | IL-2 fold-change (preproinsulin peptides) ([3]; Subject 1): 1.00 fold | IL-2 fold-change ([3]; Subject 2): 1.00 | IL-2 fold-change (preproinsulin peptides) ([3]; Subject 2): 1.00 fold | IL-2 fold-change ([3]; Subject 6): 1.00 | IL-2 fold-change (preproinsulin peptides) ([3]; Subject 6): 1.00 fold | IL-2 fold-change ([3]; Subject 7): 4.83 | IL-2 fold-change (preproinsulin peptides) ([3]; Subject 7): 4.83 fold

10 (NVCFWYIPPSLRTLEDN) [compound 10]
IFN-g fold-change (GAD65 peptides) ([1]; Subject 1): 0.78 fold | IFN-g fold-change (GAD65 peptides) ([1]; Subject 2): 0.66 fold | IFN-g fold-change (GAD65 peptides) ([1]; Subject 6): 1.42 fold | IFN-g fold-change (GAD65 peptides) ([1]; Subject 7): 1.58 fold | IP-10 fold-change (GAD65 peptides) ([2]; Subject 1): 10.24 fold | IP-10 fold-change (GAD65 peptides) ([2]; Subject 2): 8.08 fold | IP-10 fold-change (GAD65 peptides) ([2]; Subject 6): 6.04 fold | IP-10 fold-change (GAD65 peptides) ([2]; Subject 7): 9.00 fold | IL-2 fold-change (GAD65 peptides) ([3]; Subject 1): 1.00 fold | IL-2 fold-change (GAD65 peptides) ([3]; Subject 2): 1.00 fold | IL-2 fold-change (GAD65 peptides) ([3]; Subject 6): 1.49 fold | IL-2 fold-change (GAD65 peptides) ([3]; Subject 7): 3.40 fold

YTPKTRREAEDLQVGQV [SEQ ID NO: 55]
IFN-g fold-change ([1]; Subject 1): 0.51 | IFN-g fold-change (preproinsulin peptides) ([1]; Subject 1): 0.51 fold | IFN-g fold-change ([1]; Subject 2): 0.82 | IFN-g fold-change (preproinsulin peptides) ([1]; Subject 2): 0.82 fold | IFN-g fold-change ([1]; Subject 6): 1.00 | IFN-g fold-change (preproinsulin peptides) ([1]; Subject 6): 1.00 fold | IFN-g fold-change ([1]; Subject 7): 1.86 | IFN-g fold-change (preproinsulin peptides) ([1]; Subject 7): 1.86 fold | IP-10 fold-change ([2]; Subject 1): 1.06 | IP-10 fold-change (preproinsulin peptides) ([2]; Subject 1): 1.06 fold | IP-10 fold-change ([2]; Subject 2): 1.22 | IP-10 fold-change (preproinsulin peptides) ([2]; Subject 2): 1.22 fold | IP-10 fold-change ([2]; Subject 6): 1.56 | IP-10 fold-change (preproinsulin peptides) ([2]; Subject 6): 1.56 fold | IP-10 fold-change ([2]; Subject 7): 1.42 | IP-10 fold-change (preproinsulin peptides) ([2]; Subject 7): 1.42 fold | IL-2 fold-change ([3]; Subject 1): 1.00 | IL-2 fold-change (preproinsulin peptides) ([3]; Subject 1): 1.00 fold | IL-2 fold-change ([3]; Subject 2): 1.00 | IL-2 fold-change (preproinsulin peptides) ([3]; Subject 2): 1.00 fold | IL-2 fold-change ([3]; Subject 6): 1.04 | IL-2 fold-change (preproinsulin peptides) ([3]; Subject 6): 1.04 fold | IL-2 fold-change ([3]; Subject 7): 8.00 | IL-2 fold-change (preproinsulin peptides) ([3]; Subject 7): 8.00 fold

PLALEGSLQKRGIVEQC [SEQ ID NO: 58]
IFN-g fold-change ([1]; Subject 1): 0.43 | IFN-g fold-change (preproinsulin peptides) ([1]; Subject 1): 0.43 fold | IFN-g fold-change ([1]; Subject 2): 0.82 | IFN-g fold-change (preproinsulin peptides) ([1]; Subject 2): 0.82 fold | IFN-g fold-change ([1]; Subject 6): 0.86 | IFN-g fold-change (preproinsulin peptides) ([1]; Subject 6): 0.86 fold | IFN-g fold-change ([1]; Subject 7): 1.53 | IFN-g fold-change (preproinsulin peptides) ([1]; Subject 7): 1.53 fold | IP-10 fold-change ([2]; Subject 1): 1.23 | IP-10 fold-change (preproinsulin peptides) ([2]; Subject 1): 1.23 fold | IP-10 fold-change ([2]; Subject 2): 1.02 | IP-10 fold-change (preproinsulin peptides) ([2]; Subject 2): 1.02 fold | IP-10 fold-change ([2]; Subject 6): 0.87 | IP-10 fold-change (preproinsulin peptides) ([2]; Subject 6): 0.87 fold | IP-10 fold-change ([2]; Subject 7): 1.09 | IP-10 fold-change (preproinsulin peptides) ([2]; Subject 7): 1.09 fold | IL-2 fold-change ([3]; Subject 1): 1.00 | IL-2 fold-change (preproinsulin peptides) ([3]; Subject 1): 1.00 fold | IL-2 fold-change ([3]; Subject 2): 1.00 | IL-2 fold-change (preproinsulin peptides) ([3]; Subject 2): 1.00 fold | IL-2 fold-change ([3]; Subject 6): 1.00 | IL-2 fold-change (preproinsulin peptides) ([3]; Subject 6): 1.00 fold | IL-2 fold-change ([3]; Subject 7): 3.50 | IL-2 fold-change (preproinsulin peptides) ([3]; Subject 7): 3.50 fold
